Structures are written as SMILES.

The record followed here is patent US20240408158A1 (LINYI UNIVERSITY, priority 2023, published 2024).

One series has as its system mice with hyperuricemia. Put plainly: Model of hyperuricemia induced by high purine (yeast extract plus oteracil potassium). The series is classed as in vivo. The note with it: allopurinol treatment group 20 mg/kg gavage, 7 days, 5 mice per group. The source says:
1. Experimental animal: Balb/c male mice, 6-8 weeks old, with weigh of 16-18 g were purchased from Sperford (Beijing) Biotechnology Co., Ltd. At the Experimental Animal Center of Qingdao University, all mice were placed in pathogen free facilities, maintained at appropriate temperature and relative humidity, followed by a 12-hour light and dark cycle, they freely ate and drank, and clean bedding was replaced daily.
3. […] From Day 5 to Day 7, except for the blank control group, the other four groups were given 0.1 ml (6 mg/animal) of oteracil potassium by intraperitoneal injection.

Series [1] concerns mice with hyperuricemia induced by fructose and yeast diet. As to the kind of experiment: Model of hyperuricemia induced by fructose and yeast diet, serum uric acid. Format: in vivo. From the text:
1. Experimental animal: […] At the Experimental Animal Center of Qingdao University, all mice were placed in pathogen free facilities, maintained at appropriate temperature and relative humidity, followed by a 12-hour light and dark cycle, they freely ate and drank and clean bedding was replaced daily. 3. Method of modeling: 36 Balb/c male mice were divided into 6 groups, with 6 mice in each group. They were: […] Dissolving allopurinol and Antarctic red pigment in double distilled water and mixing well. […] Weights of each group of mice from day 0 onwards were recorded. 5. Uric acid testing: At Sam on days 14, 21, 28, and 35, mice were fasted for 12 hours and blood samples from the posterior orbital venous plexus of the mice were collected for uric acid testing. After the blood collection was completed, the blood was left at room temperature for one hour and centrifuged at a speed of 3000 rpm for 5 minutes to obtain a light-yellow upper serum.

Series [2] relates to mouse bone marrow red cells. The settings on record: positive control 40 mg/kg BW; P<0.01.
Experimental: 3.3 Mammalian red blood cell micronucleus test: 50 healthy, mature mice with weight of 25-30 g were selected, with half male and half female. The mice were randomly divided into 5 groups, 10 mice in each group, and half male and half female in each group. The experiment was conducted with three dose groups of 1.25, 2.5, and 5.0 g/kgBW Samples of 2.5, 5.0, and 10.0 g were weighed and prepared into 40 mL sample solutions using distilled water as the solvent. […] Mice were given test substance by oral gavage at a volume of 20 mL/kgBW, gavaged twice with an interval of 24 hours. Six hours after the second gavage, the animals were euthanized due to cervical dislocation. Sternal bone marrow was taken and made into bone marrow slices, fixed with methanol, and stained with Giemsa.
2000 polychromatic erythrocytes in each animal were observed and a frequency of micronucleus polychromatic erythrocytes (namely, micronucleus frequency) was counted, expressed in thousandths.
[3] abbreviates: after 14 days, Allopurinol group 20 mg/kg.

`Oc1ncnc2[nH]ncc12` [allopurinol]: the deaths result in the series on mice with hyperuricemia was “no deaths”. Besides, the uric acid level in series [1] (21st day, Allopurinol group 20 mg/kg) came to 247.2 ± 48.98 µmol/L; in series [1] (28th day, Allopurinol group 20 mg/kg), 264.9 ± 54.87 µmol/L; in series [1] (35th day, Allopurinol group 20 mg/kg) it was 215.8 ± 37.132 µmol/L; in series [1] (after 14 days, Allopurinol group 20 mg/kg gavage once a day), 191.5 ± 21.95 µmol/L. Besides, the “increase of uric acid level compared with the control group” value in series [1] (setting [3]) came to 24.67%. Further, in series [1] (setting [3]), the “uric acid level lower than in the High uric acid model group” value was 30.39%.

With `O=P1(N(CCCl)CCCl)NCCCO1` (centres unmarked) [cyclophosphamide], in series [2], the “micronucleus frequency compared with negative control group” value was “significantly higher”.
